The results in this text go back to patent US7872025B2 (Bridge Pharma, Inc., priority 1999, dated 2011).

Entries after “also recorded” stand apart in the source; their conditions may differ.

Data set [1] has as its system inflammation. Nature of the data set: Anti-inflammatory effects (bronchial eosinophil accumulation; mouse ear croton oil inflammation). The note with it: in vivo. The method, then: Inhibition of eosinophil accumulation in lung is determined in sensitized guinea pigs (400 to 600 grams) following intraperitoneal injection of an allergen such as for example PAF (platelet aggregating factor) or bovine serum albumin. At a predetermined time thereafter, the animals are killed with a barbiturate. The trachea is exposed and cannulated. 6×10 ml aliquots of buffered modified Tyrode's solution (composition: NaHCO3 11.9, NaCl 136.9, KCl 2.7, Na2HPO4 0.4, glucose 5.6, EDTA 19.8, gelatin 0.1% w/v; pH 7.4) are introduced successively and aspirated by gentle compression of the lungs. Total fluid recovery normally exceeds 80%. Cell suspensions are concentrated by low speed centrifugation (200 G for 10 min) and the resulting cell pellet is resuspended in 1 ml modified Tyrode's solution. Total cell counts are made by diluting 10 μl of cell suspension in 90 μl of Turk's fluid. Differential cell counts are made from smears fixed in methanol (100%) and stained in Leishman stain. A total of at least 500 cells per smear are counted at 1000 fold magnification, in order to differentiate cell types. Drugs are administered as sustained subcutaneous infusions from an implanted Alza minipump (Alzet 2001 or similar) or by repeated oral or repeated parenteral injections.
Dermal antiinflammatory effects are tested using the mouse ear croton oil inflammation method. This test method is based on Tarrida, J. et al., Meth. Find. Exp. Clin. Pharmacol. (1996) 18(4):233-234 and Blazzo, et al., Prostaglandins (1995) 50:161-168. In short, male mice (25-30 g) are treated with 5 ml/kg of a 2 mg/ml solution of each test compound in physiological saline by intraperitoneal injection. Thirty minutes after injection, croton oil (0, 20 μl of 1.0% croton oil in acetone) or acetone (control) is topically applied to both ears of each mouse. Animals are restrained during croton oil or acetone application and then released into a cage. Before and at predetermined time intervals following croton oil or acetone application, groups of animals are anesthetized with halothane and euthanized by cervical dislocation. […]

Data set [2] has as its system mice. The data set is described as follows: Sedative side effects (physostigmine-induced lethality test). The note with it: mouse, in vivo. The procedure:
The physostigmine-induced lethality test is being used in the present studies. […] In the present study, test compounds are administered orally 60 minutes prior to physostigmine. The numbers of survivors are counted 30 minutes after physostigmine administration.

Data set [3] has as its target T1, histamine H1-receptor (Cavia porcellus, UniProt P31389).
T1 construct: from tissue; host or cells: guinea pig cerebellum membranes
The data set is described as follows: Binding to histaminergic receptors (3H-pyrilamine binding). More on the design: species or system guinea pig. The method, then: Briefly, membranes from guinea pig cerebellum are incubated with ^3H-pyrilamine and varying concentrations of the test compound(s). The specific binding of the radioactive ligand to the receptor is defined as the difference between total binding and nonspecific binding, determined in the presence of an excess of unlabelled ligand. The results are expressed as percentage of specific binding in the presence of compounds. […] These parameters are obtained by Hill equation curve fitting using Sigmaplot™ software.

The target of data set [4] is histamine H-2 (Homo sapiens, UniProt P25021). Nature of the data set: Histamine H-2 antagonism (no method given).
Data set [5] deals with bronchial or other smooth muscle tissues. The data set is described as follows: Antihistaminic effects in vitro (histamine contractions of smooth muscle strips). More on the design: species or system guinea pigs. The note with it: listed as racemic norketotifen. The procedure: Strips of bronchial or other smooth muscle tissues are removed from the body of male guinea pigs weighing 400-600 g. The tissues are suspended in an oxygenated buffer of the composition (mM): NaCl, 133; KCl, 4.7; CaCl2, 2.5; MgSO4, 0.6; NaH2PO4, 1.3; NaHCO3, 16.3; and glucose, 7.7, or in a solution of a similar composition. The solution is maintained at 37.5 C. Contractions are recorded with isometric transducers (Model FT-10) on a Grass polygraph.
In order to assess the viability of each tissue and to serve as a frame of reference, contractions of each strip of tissue are recorded initially in response to exposure to an oxygenated buffer in which the NaCl is replaced by KCl to yield a concentration of 137.7 mM KCl. This is followed by return to the standard oxygenated buffer, and then by exposures to progressively increasing concentrations of histamine, with separate exposures to each concentration only until the peak response has been recorded. Then, leaving one tissue strip untreated, the remaining strips each are exposed for a predetermined time interval to one concentration of an antagonist. Finally, the responses to increasing concentrations of histamine followed by exposure to 137.7 mM KCl are recorded a second time.

T1 sequence (P31389 whole entry): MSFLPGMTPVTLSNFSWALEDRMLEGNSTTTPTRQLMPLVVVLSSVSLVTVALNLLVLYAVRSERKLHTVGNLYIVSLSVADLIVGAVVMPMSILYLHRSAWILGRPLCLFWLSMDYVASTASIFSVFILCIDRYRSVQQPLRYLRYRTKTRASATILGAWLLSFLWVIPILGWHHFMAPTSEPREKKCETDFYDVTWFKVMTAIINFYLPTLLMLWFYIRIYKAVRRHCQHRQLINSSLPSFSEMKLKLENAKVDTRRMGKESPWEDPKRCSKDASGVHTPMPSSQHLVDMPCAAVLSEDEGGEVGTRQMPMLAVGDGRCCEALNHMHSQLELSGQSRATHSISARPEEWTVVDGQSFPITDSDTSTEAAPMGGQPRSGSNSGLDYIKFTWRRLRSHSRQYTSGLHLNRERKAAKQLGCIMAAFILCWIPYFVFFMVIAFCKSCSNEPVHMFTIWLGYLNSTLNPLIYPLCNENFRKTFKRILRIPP
Sequence of histamine H-2 (P25021 whole entry): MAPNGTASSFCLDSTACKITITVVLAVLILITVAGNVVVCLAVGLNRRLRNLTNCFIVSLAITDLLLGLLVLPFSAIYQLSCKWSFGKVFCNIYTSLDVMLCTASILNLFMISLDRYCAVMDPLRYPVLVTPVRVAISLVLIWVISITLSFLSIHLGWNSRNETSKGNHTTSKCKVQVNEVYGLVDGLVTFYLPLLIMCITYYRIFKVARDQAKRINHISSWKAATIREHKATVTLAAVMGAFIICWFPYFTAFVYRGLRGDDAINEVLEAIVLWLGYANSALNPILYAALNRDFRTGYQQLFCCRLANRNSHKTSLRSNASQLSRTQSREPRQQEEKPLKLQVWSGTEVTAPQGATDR

Take `CN1CCC(=C2c3ccccc3CC(O)c3sccc32)CC1` (stereo not drawn) [10-hydroxy-ketotifen]: the anti-inflammatory effect entry in data set [1] was “inhibit inflammation”. Moreover, the sedative side effects result in data set [2] is reported as “significantly less sedation than ketotifen”. Further, the “histamine H-1 receptor antagonism / blockade” value in data set [3] is “block histamine H-1 receptors”.

Turning to `CN1CCC(=C2c3ccccc3CC(=O)c3sccc32)CC1` (racemic) [ketotifen, 4-(1-methyl-4-piperidyline)-4H-benzo(4,5) cyclohepta-(1,2-b) thiophene-10-one, reference compound], the sedative side effects entry in data set [2] was “severe and dose-limiting sedative activity”. Also, in data set [4], the “histamine H-2 antagonism” value is listed as “varying degree of histamine H-2 antagonism”.

With `O=C1Cc2ccccc2C(=C2CCNCC2)c2ccsc21` (racemic) [nor-ketotifen], the anti-inflammatory effect result in data set [1] was “potent anti-inflammatory and anti-histaminic properties”. In addition, in data set [2], the sedative side effects entry is recorded as “little or no sedative side effect”. In addition, the “histamine H-1 receptor antagonism / blockade” value in data set [3] is reported as “histamine H-1 antagonists”. Besides, the antihistaminic effects entry in data set [5] is “qualitatively similar to the antihistaminic effects of racemic ketotifen; also recorded: potent anti-inflammatory and anti-histaminic properties”. In addition, the “histamine H-2 antagonism” value in data set [4] is given as “varying degree of histamine H-2 antagonism”.

On to `CN1CCC(=C2c3ccccc3CC(=O)c3sccc32)CC1` [S-isomer of ketotifen], for which the sedative side effects result in data set [2] is listed as “not causing the severe sedative side effects of ketotifen”.

In the case of `CN1CCC(=C2c3ccccc3CC(=O)c3sccc32)CC1` [R(+)-ketotifen], the sedative side effects result in data set [2] was “almost all the sedative side effects were found to reside in R(+)-ketotifen”.

With `OC1Cc2ccccc2C(=C2CCNCC2)c2ccsc21` (stereo not drawn) [10-hydroxy-norketotifen], the anti-inflammatory effect result in data set [1] is given as “inhibit inflammation”. Also, the sedative side effects result in data set [2] was “significantly less sedation than ketotifen”. Moreover, the “histamine H-1 receptor antagonism / blockade” value in data set [3] is “block histamine H-1 receptors”.
